Earlier results as cited in patent publication US20050163873A1, “Methods and formulations for treating glaucoma” (priority 2004, published 2005).

Columns and labels:
[1] = tested on: tumor necrosis factor-alpha (TNF-α) and nitric oxide (NO)
HIV-1 enzyme integrase = HIV-1 enzyme integrase (Human immunodeficiency virus type 1 group M subtype B, UniProt P04585)
[2] = tested on: primary cultures of cerebellar neurons
retina = conditions: guinea pig, in vivo
diabetic rats [3] = tested on: diabetic rats
[4] = tested on: human Tenon's capsule fibroblast; conditions: human Tenon's capsule fibroblasts
rabbits [5] = tested on: rabbits
hippocampal CA1 neurons = conditions: central infusion after forebrain ischemia, gerbil
[6] = tested on: cultured retinal ganglion cells
[7] = tested on: cultured neurons from embryonic mouse cortex and striatum
[8] = tested on: nitric oxide and tumor necrosis factor alpha
rabbits [9] = tested on: rabbits; remark: listed apart in the source
diabetic rats [10] = tested on: diabetic rats; remark: listed apart in the source
[11] = tested on: goldfish retinal explants; conditions: post-crush goldfish retinal explants, in the presence of fetal calf serum
[12] = tested on: cultured neuronal cells and astrocytes; conditions: pretreatment of cultured neuronal cells and astrocytes
[13] = folic acid 400 μg associated with vitamin B6 and B12
[14] = tested on: inducible nitric oxide synthase (iNOS)
heme oxygenase 1 = conditions: neuronal cell cultures

## COc1cc(C[C@H]2C(=O)OC[C@@H]2Cc2ccc(OC)c(OC)c2)ccc1O [Arctigenin]
[1]
  tumor necrosis factor-alpha (TNF-α) and nitric oxide (NO) production: inhibit
Cultured neurons
  glutamate toxicity: protect
HIV-1 enzyme integrase
  HIV-1 enzyme integrase inhibition: inhibit
DNA topoisomerase II
  DNA topoisomerase II inhibition: inhibitor

## C[N+](C)(C)CC(O)CC(=O)[O-] (stereo not shown) [Carnitine]
[2]
  glutamate neurotoxicity: prevents
retina
  retinal injury following ischemia-reperfusion injury: prevent

## Cc1c(C)c2c(c(C)c1O)CC[C@@](C)(CCC[C@H](C)CCC[C@H](C)CCCC(C)C)O2 [D-alpha-tocopherol]
Diabetic rats [3]
  amount of leukostasis: prevented the increases in leukostasis
  retinal blood flow: prevented
[4]
  fibroblast proliferation: inhibit
Rabbits [5]
  results of filtering surgery: improve the results

## CC(C)=CCC[C@](C)(O[C@@H]1O[C@H](CO[C@@H]2O[C@H](CO)[C@@H](O)[C@H](O)[C@H]2O)[C@@H](O)[C@H](O)[C@H]1O)[C@H]1CC[C@]2(C)[C@@H]1[C@H](O)C[C@@H]1[C@@]3(C)CC[C@H](O[C@@H]4O[C@H](CO)[C@@H](O)[C@H](O)[C@H]4O[C@@H]4O[C@H](CO)[C@@H](O)[C@H](O)[C@H]4O)C(C)(C)[C@@H]3CC[C@]12C [Ginsenoside Rb1, ginsenoside Rb1]
Cultured cortical cells
  neuroprotective effects on cultured cortical cells: significant neuroprotective effects
Hippocampal CA1 neurons
  protection of hippocampal CA1 neurons against lethal ischemic damage: protects

## CC(C)=CCC[C@](C)(O)[C@H]1CC[C@]2(C)[C@@H]1[C@H](O)C[C@@H]1[C@@]3(C)CC[C@H](O[C@@H]4O[C@H](CO)[C@@H](O)[C@H](O)[C@H]4O[C@@H]4O[C@H](CO)[C@@H](O)[C@H](O)[C@H]4O)C(C)(C)[C@@H]3CC[C@]12C [Ginsenoside Rg3]
Cultured cortical cells
  neuroprotective effects on cultured cortical cells: significant neuroprotective effects

## C/C1=C2/[N-][C@H]([C@H](CC(N)=O)[C@@]2(C)CCC(=O)NC[C@@H](C)OP(=O)([O-])O[C@H]2[C@@H](O)[C@@H](n3cnc4cc(C)c(C)cc43)O[C@@H]2CO)[C@]2(C)N=C(/C(C)=C3N=C(/C=C4N=C1[C@@H](CCC(N)=O)C\4(C)C)[C@@H](CCC(N)=O)[C@]\3(C)CC(N)=O)[C@@H](CCC(N)=O)[C@]2(C)CC(N)=O.[CH3-].[Co+3] [Methylcobalamin]
[6]
  glutamate-induced neurotoxicity: protects

## CC(=O)N[C@@H](CS)C(=O)O [N-acetyl-L-cysteine]
[7]
  neuronal cell survival rate: increased

## O=c1c(O)c(-c2ccc(O)c(O)c2)oc2cc(O)cc(O)c12 [Quercetin]
[8]
  release of nitric oxide and tumor necrosis factor alpha: inhibits
Cortical cell cultures
  oxidative injury: neuroprotective
rats
  progression of selenite-induced cataract: slow the progression

## C=CCSSC[C@H](N)C(=O)O [S-Allylmercaptocysteine]
Rabbits [9]
  IOP: lower IOP

## NCCS(=O)(=O)O [Taurine]
Diabetic rats [10]
  ATPase activity: preserves
  lipid peroxidation: significantly decreases
[11]
  neuritic outgrowth: increased length and density of neurites

## O=C(O)CCCCC1CCSS1 (stereo not drawn) [alpha-lipoic acid, Alpha-lipoic acid]
Diabetic rats [3]
  amount of leukostasis: normalized

## C[N+](C)(C)CCOP(=O)(O)OP(=O)([O-])OC[C@H]1O[C@@H](n2ccc(N)nc2=O)[C@H](O)[C@@H]1O [citicoline, Citicoline]
Patients with glaucoma
  visual evoked potential and pattern electroretinography (ERG) parameters: significant (P<0.01) improvement

## COC1=C(OC)C(=O)C(C/C=C(\C)CC/C=C(\C)CC/C=C(\C)CC/C=C(\C)CC/C=C(\C)CC/C=C(\C)CC/C=C(\C)CC/C=C(\C)CC/C=C(\C)CCC=C(C)C)=C(C)C1=O [coenzyme Q10]
[12]
  cell death due to glutamate neurotoxicity: inhibited cell death

## Nc1nc2ncc(CNc3ccc(C(=O)N[C@@H](CCC(=O)O)C(=O)O)cc3)nc2c(=O)[nH]1 [folic acid]
[13]
  reduction of homocysteine levels: 30%

## N[C@H]1C(O)O[C@H](CO)[C@@H](O)[C@@H]1O (stereo partly shown) [glucosamine]
[14]
  inducible nitric oxide synthase (iNOS) inhibition: inhibits

## Oc1ccc(C=Cc2cc(O)cc(O)c2)cc1 [resveratrol, Resveratrol]
Heme oxygenase 1
  heme oxygenase 1: induces
